The text below walks through data of patent US10975068B2, “6-aminopyridin-3-yl thiazoles as modulators of RORγT” (Janssen Pharmaceutica NV, priority 2016, dated 2021).

Test [1] addresses human RORγt ligand binding domain (RORγt LBD) (Homo sapiens (Human), UniProt P51449). The test can be described thus: RORγt ThermoFluor® assay (thermal shift binding). Put shortly:
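Binding was inferred from thermal stabilisation (ΔTm) of the E. coli-expressed RORγt LBD (0.065 mg/mL), monitored by 1,8-ANS (60 μM) emission at 500 nm during a 1 °C/min ramp. Buffer was Hepes 100 mM pH 7.0 with NaCl, GSH and Tween-20.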

The target in the next test is full-length human RORγt (Homo sapiens (Human), UniProt P51449). The test can be described thus: RORγt (full-length human) reporter assay, Conditions B or C. It counts as cell-based. To be noted: for RORγt (FL) Reporter Assay B or C, % inhibition (value marked *): marked *: footnote not given; for inhibition at 1 µM: at 1 μM compound concentration; for inhibition at 1 µM / inhibition at 3 µM: read-out: RORγt (FL) Reporter Assay B or C, % inhibition; for inhibition at 3 µM: at 3 μM compound concentration. Put shortly:
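Readout is dual luciferase: firefly (GAL4-driven) normalized to DMSO-only and saturating-reference controls, then to CMV-Renilla. Full-length human RORγt fused to GAL4-DBD was transiently expressed in HEK293T; compound exposure ran overnight (16-20 h) starting 4-6 h after transfection, final FBS 1.3%, DMSO 0.1%.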
On the technique in general: A reporter such as luciferase makes a cellular process visible.

The mark [2] stands for this setting: read-out: ThermoFluor® Assay, Kd.
Where [3] appears, read: Conditions B or C, read-out: RORγt (FL) Reporter Assay B or C, IC50.
Setting [4] is: read-out: RORγt (FL) Reporter Assay B or C, IC50.

Read-outs that look alike come from different tables or passages of the source.

Chain of full-length human RORγt (P51449 other isoform, or with tags, fused parts or gaps): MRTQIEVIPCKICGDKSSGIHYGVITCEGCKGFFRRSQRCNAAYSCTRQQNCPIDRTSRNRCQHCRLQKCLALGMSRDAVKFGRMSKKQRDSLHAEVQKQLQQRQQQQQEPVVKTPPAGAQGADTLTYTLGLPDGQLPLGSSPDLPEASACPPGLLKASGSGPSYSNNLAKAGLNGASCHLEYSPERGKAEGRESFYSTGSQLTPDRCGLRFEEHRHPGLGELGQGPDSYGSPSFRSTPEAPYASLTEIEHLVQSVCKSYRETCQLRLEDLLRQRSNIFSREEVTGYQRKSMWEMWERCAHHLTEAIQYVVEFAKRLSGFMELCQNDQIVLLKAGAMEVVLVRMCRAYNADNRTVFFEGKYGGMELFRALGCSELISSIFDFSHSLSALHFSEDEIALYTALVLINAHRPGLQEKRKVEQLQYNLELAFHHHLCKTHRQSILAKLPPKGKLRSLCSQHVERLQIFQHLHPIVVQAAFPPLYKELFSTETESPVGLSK
Chain of human RORγt ligand binding domain (RORγt LBD) (P51449 other isoform, or with tags, fused parts or gaps): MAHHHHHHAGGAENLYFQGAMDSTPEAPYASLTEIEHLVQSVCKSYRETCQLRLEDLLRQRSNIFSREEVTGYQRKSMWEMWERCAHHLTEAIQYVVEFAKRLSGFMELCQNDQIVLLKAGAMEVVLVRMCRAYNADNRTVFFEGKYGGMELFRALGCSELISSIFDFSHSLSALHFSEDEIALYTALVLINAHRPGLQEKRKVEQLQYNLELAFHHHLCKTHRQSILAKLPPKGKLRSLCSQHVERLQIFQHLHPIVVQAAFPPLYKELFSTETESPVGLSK

The term Kd denotes a measure of binding affinity in units of concentration. Usually IC50 stands for the concentration at which inhibition is half-maximal. Turning to `C[C@H]1CC(F)(F)CN1C(=O)c1nc(C(=O)NCC(C)(C)O)sc1-c1cnc(NCC2(C(F)(F)F)CCC2)cc1C(F)(F)F` [Example 118, (S)-4-(4,4-Difluoro-2-methylpyrrolidine-1-carbonyl)-N-(2-hydroxy-2-methylpropyl)-5-(4-(trifluoromethyl)-6-(((1-(trifluoromethyl)cyclobutyl)methyl)amino)pyridin-3-yl)thiazole-2-carboxamide], the Kd in test [1] (setting [2]) was 0.43 nM. Further, on full-length human RORγt (Conditions B or C, marked ****: footnote not shown), the “RORγt (FL) Reporter Assay B or C, % inhibition (value marked ****)” value is 109**** %. At full-length human RORγt (setting [3]), the IC50 was determined as 0.0071 µM.

Regarding `CC[C@@H](Nc1cc(C(F)F)c(-c2sc(C(=O)N[C@H](C)CO)nc2C(=O)N2CCC[C@@H]2C)cn1)C(F)(F)F` [Example 206, 5-(4-(Difluoromethyl)-6-(((1R)-1-(trifluoromethyl)propyl)amino)-3-pyridyl)-N-((1R)-2-hydroxy-1-methyl-ethyl)-4-((2S)-2-methylpyrrolidine-1-carbonyl)thiazole-2-carboxamide], the Kd in test [1] (setting [2]) is 3.2 nM. Besides, the “RORγt (FL) Reporter Assay B or C, % inhibition (value marked ***)” value on full-length human RORγt (Conditions B or C, marked ***: footnote not given) was 106*** %. In addition, the IC50 at full-length human RORγt (setting [3]) was found to be 0.035 µM.

With `CC[C@H](Nc1cc(C(F)F)c(-c2sc(C(=O)N[C@H]3CC[C@H](O)C3)nc2C(=O)N2C3CCC2CC3)cn1)C(F)(F)F` [Example 151], the Kd in test [1] (setting [2]) stood at 0.87 nM. Further, at full-length human RORγt (Conditions B or C), the “RORγt (FL) Reporter Assay B or C, % inhibition (value marked *)” value (from here on “RORγt … % inhibition (value marked *)”) is 104* %. Further, on full-length human RORγt (setting [3]), the IC50 was 0.015 µM.

In the case of `C[C@H]1CC(F)(F)CN1C(=O)c1nc(C(=O)N[C@H](C)C(C)(C)O)sc1-c1cnc(NC2(C)CCC2)cc1C(F)(F)F` [Example 196, 4-((S)-4,4-Difluoro-2-methylpyrrolidine-1-carbonyl)-N—((R)-3-hydroxy-3-methylbutan-2-yl)-5-(6-((1-methhylcyclobutyl)amino)-4-(trifluoromethyl)pyridine-3-yl)thiazole-2-carboxamide], the Kd in test [1] (setting [2]) amounted to 0.64 nM. Also, the “RORγt … % inhibition (value marked *)” value on full-length human RORγt (Conditions B or C) was 109* %. Further, at full-length human RORγt (setting [3]), the IC50 was 0.027 µM.

By inhibition is commonly meant the relative decrease from the control value, in per cent. In the case of `C[C@H]1CCCN1C(=O)c1nc(C(=O)N2CC[C@](C)(O)C2)sc1-c1cnc(NC(C)(C)C)cc1C(F)(F)F` (relative stereo) [Example 365, (5-(6-(tert-Butylamino)-4-(trifluoromethyl)pyridin-3-yl)-2-((S*)-3-hydroxy-3-methylpyrrolidine-1-carbonyl)thiazol-4-yl)((S)-2-methylpyrrolidin-1-yl)methanone], the Kd in test [1] (setting [2]) stood at 8.1 nM. In addition, at full-length human RORγt, the inhibition at 1 µM came to 92%. Moreover, on full-length human RORγt (setting [4]), the IC50 is 0.052 µM.

Take `C[C@H](Nc1cc(C(F)F)c(-c2sc(C(=O)N[C@@H]3CCC[C@H]3O)nc2C(=O)N2C3CCC2CC3)cn1)C(F)(F)F` [Example 224, 4-((1s,4s)-7-Azabicyclo[2.2.1]heptane-7-carbonyl)-5-(4-(difluoromethyl)-6-(((1S)-2,2,2-trifluoro-1-methyl-ethyl)amino)-3-pyridyl)-N-((1R,2R)-2-hydroxycyclopentyl)thiazole-2-carboxamide]: the Kd in test [1] (setting [2]) was determined as 2.7 nM. Also, the “RORγt … % inhibition (value marked *)” value on full-length human RORγt (Conditions B or C) is recorded as 112* %. In addition, at full-length human RORγt (RORγt (FL) Reporter Assay B or C, IC50 (μM), Conditions B or C), the IC50 was determined as 0.026 µM.

In the case of `C[C@H](Nc1cc(C(F)F)c(-c2sc(C(=O)N[C@H]3COC[C@H]3O)nc2C(=O)N2CCC[C@@H]2C)cn1)C(F)(F)F` (single isomer, unassigned) [Example 160, 5-(4-(Difluoromethyl)-6-(((S)-1,1,1-trifluoropropan-2-yl)amino)pyridin-3-yl)-N-((3S*,4S*)-4-hydroxytetrahydrofuran-3-yl)-4-((S)-2-methylpyrrolidine-1-carbonyl)thiazole-2-carboxamide], in test [1] (setting [2]), the equilibrium dissociation constant (Kd) is 8.7 nM. The “RORγt … % inhibition (value marked *)” value on full-length human RORγt (Conditions B or C) is on record as 101* %. Also, the IC50 at full-length human RORγt (setting [3]) came to 0.41 µM.

For the molecule `C[C@H]1CCCN1C(=O)c1nc(C(=O)NCC(C)(C)O)sc1-c1cncc(NC2CCCCC2)c1C#N` [Comparator Example 2, (S)-5-(4-Cyano-5-(cyclohexylamino)pyridin-3-yl)-N-(2-hydroxy-2-methylpropyl)-4-(2-methylpyrrolidine-1-carbonyl)thiazole-2-carboxamide, reference compound], in test [1] (setting [2]), the Kd is 5800 nM. For the same molecule, at full-length human RORγt (HEK293T cells, read-out: RORγt (FL) Reporter Assay B or C, IC50), the IC50 stood at 3 µM.

Take `C[C@H]1CCCN1C(=O)c1nc(C(=O)NC[C@H](O)CO)sc1-c1cnc(NC(C)(C)C)cc1C(F)(F)F` [Example 363, 5-[6-(tert-Butylamino)-4-(trifluoromethyl)-3-pyridyl]-N-[(2S)-2,3-dihydroxypropyl]-4-[(2S)-2-methylpyrrolidine-1-carbonyl]thiazole-2-carboxamide]: in test [1] (setting [2]), the Kd was 13 nM. Also, the inhibition at 3 µM on full-length human RORγt stood at 111%. The IC50 at full-length human RORγt (setting [4]) worked out at 0.13 µM.

For the molecule `CC[C@H](Nc1cc(C(F)F)c(-c2sc(C(=O)N[C@@H]3CCC[C@H]3O)nc2C(=O)N2CCC[C@@H]2C)cn1)C(F)(F)F` [Example 231, 5-[4-(Difluoromethyl)-6-[[(1S)-1-(trifluoromethyl)propyl]amino]-3-pyridyl]-N-[(1R,2R)-2-hydroxycyclopentyl]-4-[(2S)-2-methylpyrrolidine-1-carbonyl]thiazole-2-carboxamide], the Kd in test [1] (setting [2]) was determined as 1.4 nM. Moreover, on full-length human RORγt (Conditions B or C), the “RORγt … % inhibition (value marked *)” value was 92* %. The IC50 at full-length human RORγt (setting [3]) came to 0.058 µM.

Take `C[C@H]1CCCN1C(=O)c1nc(C(=O)NCC(C)(C)O)sc1-c1cnc(NC(C2CC2)C(F)(F)F)cc1C(F)F` (some centres unmarked) [Example 294]: in test [1] (setting [2]), the Kd amounted to 1.3 nM. Moreover, at full-length human RORγt, the inhibition at 3 µM is 100%. Moreover, at full-length human RORγt (setting [4]), the concentration for half-maximal inhibition (IC50) stood at 0.013 µM.

As to `C[C@H](Nc1cc(C(F)F)c(-c2sc(C(=O)N[C@H]3C[C@H](O)C3)nc2C(=O)N2CC(F)(F)C[C@@H]2C)cn1)C(F)(F)F` [Example 191, 4-((S)-4,4-Difluoro-2-methylpyrrolidine-1-carbonyl)-5-(4-(difluoromethyl)-6-(((S)-1,1,1-trifluoropropan-2-yl)amino)pyridine-3-yl)-N-((1r,3S)-3-hydroxycyclobutyl)thiazole-2-carboxamide], in test [1] (setting [2]), the Kd came out at 18 nM. Moreover, the “RORγt … % inhibition (value marked *)” value on full-length human RORγt (Conditions B or C) is listed as 98* %. In addition, the IC50 at full-length human RORγt (setting [3]) worked out at 0.032 µM.

`C[C@H](Nc1cc(C(F)(F)F)c(-c2sc(C(=O)NCC3(O)CCC3)nc2C(=O)N2CCC[C@@H]2C)cn1)C1CC1` [Example 49, 5-(6-(((S)-1-Cyclopropylethyl)amino)-4-(trifluoromethyl)pyridin-3-yl)-N-((1-hydroxycyclobutyl)methyl)-4-((S)-2-methylpyrrolidine-1-carbonyl)thiazole-2-carboxamide]: in test [1] (setting [2]), the dissociation constant (Kd) turned out to be 3.3 nM. Moreover, on full-length human RORγt (Conditions B or C), the “RORγt … % inhibition (value marked *)” value is 99* %. Further, the IC50 on full-length human RORγt (setting [3]) worked out at 0.0076 µM.

Take `C[C@H](Nc1cc(C(F)(F)F)c(-c2sc(C(=O)N[C@H]3COC[C@H]3O)nc2C(=O)N2C3CCC2CC3)cn1)C(F)(F)F` (single isomer, unassigned) [Example 255, 4-((1s,4s)-7-Azabicyclo[2.2.1]heptane-7-carbonyl)-N-((3S*,4S*)-4-hydroxytetrahydrofuran-3-yl)-5-(4-(trifluoromethyl)-6-(((S)-1,1,1-trifluoropropan-2-yl)amino)pyridin-3-yl)thiazole-2-carboxamide]: in test [1] (ThermoFluor® Assay, Kd), the Kd was 16 nM. The molecule further registered an IC50 against full-length human RORγt (RORγt (FL) Reporter Assay B or C, IC50) of 0.16 µM. Besides, on full-length human RORγt, the inhibition at 1 µM is 78%.

As to `C[C@H]1CCCN1C(=O)c1nc(C(=O)NC2CCOCC2)sc1-c1cnc(NC(C)(C)C)cc1C(F)F` [Example 412, 5-[6-(tert-Butylamino)-4-(difluoromethyl)-3-pyridyl]-4-[(2S)-2-methylpyrrolidine-1-carbonyl]-N-tetrahydropyran-4-yl-thiazole-2-carboxamide], in test [1] (setting [2]), the Kd stood at 3.4 nM. In addition, the inhibition at 3 µM on full-length human RORγt is 127%. Moreover, at full-length human RORγt (setting [4]), the IC50 is 0.037 µM.

As for `C[C@H]1CCCN1C(=O)c1nc(C(=O)NC[C@@H](O)C(F)(F)F)sc1-c1cnc(NC(C)(C)C)cc1C(F)(F)F` (relative stereo) [Example 354, 5-(6-(tert-Butylamino)-4-(trifluoromethyl)pyridin-3-yl)-4-((S)-2-methylpyrrolidine-1-carbonyl)-N—((R*)-3,3,3-trifluoro-2-hydroxypropyl)thiazole-2-carboxamide], the Kd in test [1] (setting [2]) is 0.97 nM. Moreover, the inhibition at 3 µM on full-length human RORγt worked out at 93%. In addition, the IC50 on full-length human RORγt (setting [4]) was 0.015 µM.

For the molecule `C[C@H]1CCCN1C(=O)c1nc(C(=O)N[C@H]2C[C@H](O)C2)sc1-c1cnc(N[C@@H](C2CC2)C(F)(F)F)cc1C(F)F` [Example 310, 5-(6-(((S)-1-Cyclopropyl-2,2,2-trifluoroethyl)amino)-4-(difluoromethyl)pyridin-3-yl)-N-((1r,3S)-3-hydroxycyclobutyl)-4-((S)-2-methylpyrrolidine-1-carbonyl)thiazole-2-carboxamide], in test [1] (setting [2]), the Kd amounted to 8.7 nM. At full-length human RORγt, the inhibition at 3 µM was 92%. In addition, the IC50 on full-length human RORγt (setting [4]) was 0.036 µM.

For the molecule `CCC(C)(C)Nc1cc(C(F)F)c(-c2sc(C(=O)NCC(C)(C)O)nc2C(=O)N2C3CCC2CC3)cn1` [Example 93, 4-((1s,4s)-7-Azabicyclo[2.2.1]heptane-7-carbonyl)-5-(4-(difluoromethyl)-6-(tert-pentylamino)pyridin-3-yl)-N-(2-hydroxy-2-methylpropyl)thiazole-2-carboxamide], in test [1] (setting [2]), the Kd came out at 1.1 nM. At full-length human RORγt (Conditions B or C), the “RORγt … % inhibition (value marked *)” value is given as 121* %. The IC50 at full-length human RORγt (setting [3]) turned out to be 0.01 µM.
